Source: patent US20240018122A1, “PYRIDAZINYL AMINO DERIVATIVES AS ALK5 INHIBITORS” (CHIESI FARMACEUTICI S.P.A., priority 2020, published 2024)
Like-named read-outs stand apart in the source and are kept apart here.

Target: human ALK5 (Homo sapiens (Human), UniProt P36897)
Assay: ADP-GLO Kinases assay, inhibitory activity on ALK5
Type: biochemical
[1] = purified recombinant human ALK5 2.6 nM, TGFβ1 peptide substrate, 25° C, 150 min incubation, ADP-Glo detection, read-out: ALK5 IC50

Sequence of human ALK5 (P36897 80-503 limits assumed): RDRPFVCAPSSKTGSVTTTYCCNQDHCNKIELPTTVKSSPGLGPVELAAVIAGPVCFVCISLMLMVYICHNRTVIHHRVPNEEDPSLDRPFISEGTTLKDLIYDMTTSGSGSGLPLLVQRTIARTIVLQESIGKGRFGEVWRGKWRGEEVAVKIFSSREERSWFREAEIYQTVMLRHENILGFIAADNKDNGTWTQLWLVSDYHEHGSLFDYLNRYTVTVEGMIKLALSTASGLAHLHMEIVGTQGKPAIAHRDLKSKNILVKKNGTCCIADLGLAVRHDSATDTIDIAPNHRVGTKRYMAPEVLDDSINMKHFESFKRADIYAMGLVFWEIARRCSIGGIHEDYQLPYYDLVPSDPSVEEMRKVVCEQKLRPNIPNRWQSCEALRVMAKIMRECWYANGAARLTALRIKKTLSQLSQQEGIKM

Row | Structure (SMILES) | IC50 [1] [nM] | IC50 [nM]
1 | O=C(NCCN1CCOCC1)c1ccc2c(Nc3cnnc(-c4cc(Cl)ccc4F)c3)ccnc2c1 [Example 4, 4-{[6-(5-Chloro-2-Fluorophenyl)Pyridazin-4-Yl]Amino}-N-[2-(Morpholin-4-Yl)Ethyl]Quinoline-7-Carboxamide] | < 1 | –
2 | CC(C)c1ccc(F)c(-c2cc(Nc3ccnc4cc(OCCN5CCN(C)CC5)ccc34)cnn2)c1 [Example 37, N-{6-[2-Fluoro-5-(Propan-2-Yl)Phenyl]Pyridazin-4-Yl}-7-[2-(4-Methylpiperazin-1-Yl)Ethoxy]Quinolin-4-Amine] | < 1 | –
3 | CN(C)CCN1CCN(C(=O)Oc2ccc3c(Nc4cnnc(-c5cc(Cl)ccc5F)c4)ccnc3c2)CC1 [Example 61, 4-{[6-(5-Chloro-2-Fluorophenyl)Pyridazin-4-Yl]Amino}Quinolin-7-Yl 4-[2-(Dimethylamino)Ethyl]Piperazine-1-Carboxylate] | < 1 | –
4 | COC(=O)NCCN1CCN(CCC(=O)Nc2cc(Nc3cc(-c4cc(Cl)ccc4F)nnc3C)ccn2)CC1 [Example 82, Methyl N-[2-(4-{2-[(4-{[6-(5-Chloro-2-Fluorophenyl)-3-Methylpyridazin-4-Yl]Amino}Pyridin-2-Yl)Carbamoyl]Ethyl}Piperazin-1-Yl)Ethyl]Carbamate] | < 1 | –
5 | CN1CC2(CCN(C(=O)Oc3ccc4c(Nc5cnnc(-c6cc(Cl)ccc6F)c5)ccnc4c3)CC2)C1 [Example 114, 4-{[6-(5-Chloro-2-Fluorophenyl)Pyridazin-4-Yl]Amino}Quinolin-7-Yl 2-Methyl-2,7-Diazaspiro[3.5]Nonane-7-Carboxylate] | < 1 | –
6 | CC(=O)N1CCN(CCC(=O)Nc2cc(Nc3cnnc(-c4cc(Cl)ccc4F)c3)ccn2)CC1 [Example 31, 3-(4-Acetylpiperazin-1-Yl)-N-(4-{[6-(5-Chloro-2-Fluorophenyl)Pyridazin-4-Yl]Amino}Pyridin-2-Yl)Propanamide] | < 1 | –
7 | CN1CCN(C(=O)COc2ccc3c(Nc4cnnc(-c5cc(Cl)ccc5F)c4)ccnc3c2)CC1 [Example 39, 2-[(4-{[6-(5-Chloro-2-Fluorophenyl)Pyridazin-4-Yl]Amino}Quinolin-7-Yl)Oxy]-1-(4-Methylpiperazin-1-Yl)Ethan-1-One] | 1 to 5 | –
8 | Cc1nnc(-c2cc(Cl)ccc2F)cc1Nc1ccnc(NC(=O)CCN2CCN(C)C(C(=O)O)C2)c1 (centres unmarked) [Example 95, 4-{2-[(4-{[6-(5-chloro-2-fluorophenyl)-3-methylpyridazin-4-yl]amino}pyridin-2-yl)carbamoyl]ethyl}-1-methylpiperazine-2-carboxylic acid] | < 1 | –
9 | CN1CCC(CCOc2ccc3c(Nc4cnnc(-c5cc(Cl)ccc5F)c4)ccnc3c2)CC1 [Example 17, N-[6-(5-Chloro-2-Fluorophenyl)Pyridazin-4-Yl]-7-[2-(1-Methylpiperidin-4-Yl)Ethoxy]Quinolin-4-Amine] | < 1 | –
10 | Cc1nnc(-c2cc(Cl)ccc2F)cc1Nc1ccnc(NC(=O)C[N+]2([O-])CCOCC2)c1 [Example 123, 4-{[(4-{[6-(5-Chloro-2-Fluorophenyl)-3-Methylpyridazin-4-Yl]Amino}Pyridin-2-Yl)Carbamoyl]Methyl}Morpholin-4-Ium-4-Olate] | < 1 | –
11 | COC(=O)CCN1CCN(CCOc2ccc3c(Nc4cnnc(-c5cc(Cl)ccc5F)c4)ccnc3c2)CC1 [Example 60, Methyl 3-(4-{2-[(4-{[6-(5-Chloro-2-Fluorophenyl)Pyridazin-4-Yl]Amino}Quinolin-7-Yl)Oxy]Ethyl}Piperazin-1-Yl)Propanoate] | < 1 | –
12 | CN1CCN(C(=O)Oc2ccc3c(Nc4cnnc(-c5cc(Cl)ccc5F)c4)ccnc3c2)CC1 [Example 28, 4-{[6-(5-Chloro-2-Fluorophenyl)Pyridazin-4-Yl]Amino}Quinolin-7-Yl 4-Methylpiperazine-1-Carboxylate] | – | 1 to 5
13 | Nc1cc(Nc2cc(-c3cc(Cl)ccc3F)nnc2C(F)(F)F)ccn1 [Example 180, N4-[6-(5-Chloro-2-Fluorophenyl)-3-(Trifluoromethyl)Pyridazin-4-Yl]Pyridine-2,4-Diamine] | < 1 | –
14 | CN1CCN(CCOc2ccc3c(Nc4cnnc(-c5cc(Cl)ccc5F)c4)ccnc3c2)C1 [Example 90, N-[6-(5-Chloro-2-Fluorophenyl)Pyridazin-4-Yl]-7-[2-(3-Methylimidazolidin-1-Yl)Ethoxy]Quinolin-4-Amine] | < 1 | –

The next lines start with results.

Row | IC50 [1] [nM] | Structure (SMILES) | IC50 [nM]
15 | < 1 | CN1CCN(CCC(=O)Nc2ccc3c(Nc4cnnc(-c5cc(Cl)ccc5F)c4)ccnc3c2)CC1 [Example 32, N-(4-{[6-(5-Chloro-2-Fluorophenyl)Pyridazin-4-Yl]Amino}Quinolin-7-Yl)-3-(4-Methylpiperazin-1-Yl)Propanamide] | –
16 | < 1 | COC(=O)N(C)CCN1CCN(CCC(=O)Nc2cc(Nc3cc(-c4cc(Cl)ccc4F)nnc3C)ccn2)CC1 [Example 105, methyl N-[2-(4-{2-[(4-{[6-(5-chloro-2-fluorophenyl)-3-methylpyridazin-4-yl]amino}pyridin-2-yl)carbamoyl]ethyl}piperazin-1-yl)ethyl]-N-methylcarbamate] | –
17 | < 1 | CN(C)CCN1CCN(CCOc2ccc3c(Nc4cnnc(-c5cc(Cl)ccc5F)c4)ccnc3c2)CC1 [Example 68, N-[6-(5-Chloro-2-Fluorophenyl)Pyridazin-4-Yl]-7-[2-[4-[2-(Dim Ethylamino)Ethyl]Piperazin-1-Yl]Ethoxy]Quinolin-4-Amine] | –
18 | < 1 | Cc1nnc(-c2cc(C(F)F)ccc2F)cc1Nc1ccnc(NC(=O)CCN2CCN(C)CC2)c1 [Example 190, N-[4-({6-[5-(Difluoromethyl)-2-Fluorophenyl]-3-Methylpyridazin-4-Yl}Amino)Pyridin-2-Yl]-3-(4-Methylpiperazin-1-Yl)Propenamide] | –
19 | < 1 | CS(=O)(=O)NCCN1CCN(CCOc2ccc3c(Nc4cnnc(-c5cc(Cl)ccc5F)c4)ccnc3c2)CC1 [Example 67, N-[2-(4-{2-[(4-{[6-(5-Chloro-2-Fluorophenyl)Pyridazin-4-Yl]Amino}Quinolin-7-Yl)Oxy]Ethyl}Piperazin-1-Yl)Ethyl]Methanesulfonamide] | –
20 | < 1 | COC(=O)NCCN1CCN(CCOc2ccc3c(Nc4cnnc(-c5cc(Cl)ccc5F)c4)ccnc3c2)CC1 [Example 77, Methyl N-[2-(4-{2-[(4-{[6-(5-Chloro-2-Fluorophenyl)Pyridazin-4-Yl]Amino}Quinolin-7-Yl)Oxy]Ethyl}Piperazin-1-Yl)Ethyl]Carbamate] | –
21 | < 1 | Cc1nnc(-c2cc(Cl)ccc2F)cc1Nc1ccnc(NC(=O)CCN2CC3CC2CN3C)c1 (centres unmarked) [Example 121, N-(4-{[6-(5-Chloro-2-Fluorophenyl)-3-Methylpyridazin-4-Yl]Amino}Pyridin-2-Yl)-3-{5-Methyl-2,5-Diazabicyclo[2.2.1]Heptan-2-Yl}Propanamide] | –
22 | < 1 | Cc1nnc(-c2cc(Cl)ccc2F)cc1Nc1ccnc(NC(=O)CCN2C[C@@H]3C[C@H]2CN3C)c1 [Example 111, N-(4-{[6-(5-Chloro-2-Fluorophenyl)-3-Methylpyridazin-4-Yl]Amino}Pyridin-2-Yl)-3-[(1S,4S)-5-Methyl-2,5-Diazabicyclo[2.2.1]Heptan-2-Yl]Propanamide] | –
23 | < 1 | O=C(NCCN1CCNCC1)c1ccc2c(Nc3cnnc(-c4cc(Cl)ccc4F)c3)ccnc2c1 [Example 10, 4-{[6-(5-Chloro-2-Fluorophenyl)Pyridazin-4-Yl]Amino}-N-[2-(Piperazin-1-Yl)Ethyl]Quinoline-7-Carboxamide] | –
24 | < 1 | Cc1nnc(-c2cc(Cl)ccc2F)cc1Nc1ccnc(NC(=O)c2cnn(CCN(C)C)c2)c1 [Example 156, N-(4-{[6-(5-Chloro-2-Fluorophenyl)-3-Methylpyridazin-4-Yl]Amino}Pyridin-2-Yl)-1-[2-(Dimethylamino)Ethyl]-1H-Pyrazole-4-Carboxamide] | –
25 | 5 to 10 | CN1CC(NC(=O)c2cc3c(Nc4cnnc(-c5cc(Cl)ccc5F)c4)ccnc3cn2)C1 [Example 23, 4-{[6-(5-Chloro-2-Fluorophenyl)Pyridazin-4-Yl]Amino}-N-(1-Methylazetidin-3-Yl)-1,7-Naphthyridine-6-Carboxamide] | –
26 | < 1 | CN1CCC(CCNC(=O)c2ccc3c(Nc4cnnc(-c5cc(Cl)ccc5F)c4)ccnc3c2)CC1 [Example 14, 4-{[6-(5-Chloro-2-Fluorophenyl)Pyridazin-4-Yl]Amino}-N-[2-(1-Methylpiperidin-4-Yl)Ethyl]Quinoline-7-Carboxamide] | –
27 | < 1 | CNC(=O)CCN1CCN(CCOc2ccc3c(Nc4cnnc(-c5cc(Cl)ccc5F)c4)ccnc3c2)CC1 [Example 63, 3-(4-{2-[(4-{[6-(5-Chloro-2-Fluorophenyl)Pyridazin-4-Yl]Amino}Quinolin-7-Yl)Oxy]Ethyl}Piperazin-1-Yl)-N-Methylpropanamide] | –
28 | < 1 | COC(=O)CCc1nnc(-c2cc(Cl)ccc2F)cc1Nc1ccnc(NC(=O)CCN2CCN(C)CC2)c1 [Example 187, Methyl 3-[6-(5-Chloro-2-Fluorophenyl)-4-({2-[3-(4-Methylpiperazin-1-Yl)Propanamido]Pyridin-4-Yl}Amino)Pyridazin-3-Yl]Propanoate] | –
29 | < 1 | Cc1nnc(-c2cc(Cl)ccc2F)cc1Nc1ccnc(NC(=O)CCN2CCN(CC(F)(F)F)CC2)c1 [Example 124, N-(4-{[6-(5-Chloro-2-Fluorophenyl)-3-Methylpyridazin-4-Yl]Amino}Pyridin-2-Yl)-3-[4-(2,2,2-Trifluoroethyl)Piperazin-1-Yl]Propanamide] | –
30 | < 1 | CS(=O)(=O)N1CCN(CCOc2ccc3c(Nc4cnnc(-c5cc(Cl)ccc5F)c4)ccnc3c2)CC1 [Example 36, N-[6-(5-Chloro-2-Fluorophenyl)Pyridazin-4-Yl]-7-[2-(4-Methanesulfonylpiperazin-1-Yl)Ethoxy]Quinolin-4-Amine] | –
31 | 1 to 5 | CN1CCC(NC(=O)c2cc3c(Nc4cnnc(-c5cc(Cl)ccc5F)c4)ccnc3cn2)CC1 [Example 26, 4-{[6-(5-Chloro-2-Fluorophenyl)Pyridazin-4-Yl]Amino}-N-(1-Methylpiperidin-4-Yl)-1,7-Naphthyridine-6-Carboxamide] | –
32 | < 1 | Cc1nnc(-c2cc(Cl)ccc2F)cc1Nc1ccnc2cc(OCCN3CCN(C)CC3)ccc12 [Example 48, N-[6-(5-Chloro-2-Fluorophenyl)-3-Methylpyridazin-4-Yl]-7-[2-(4-Methylpiperazin-1-Yl)Ethoxy]Quinolin-4-Amine] | –
